Publication PMC11413853, “Discovery of VU6007496: Challenges in the Development of an M1 Positive Allosteric Modulator Backup Candidate” (ACS Chemical Neuroscience, 2024)
Like-named read-outs stand apart in the source and are kept apart here.

Legend:
[1] = test system: rM2-5; assay: Muscarinic selectivity, rat M2-5; assay type: cell-based
[2] = Plasma protein binding, rat; assay type: in vitro ADME; conditions: pH 7.4, read-out: fu,plasma rat
Description: (§1) Plasma protein binding and Brain homogenate binding: Determination of fraction unbound (f u) in plasma was conducted in vitro via equilibrium dialysis using HTDialysis (HTD) membrane plates. The top half of the plate was filled with 100 uL of Dubelco’s Phosphate Buffered Saline, pH 7.4 (DPBS). Compounds were diluted into plasma from each species (5 µM final concentration), which was aliquoted in triplicate to the ‘bottom half’ of the prepared HTD plate wells. The HTD plate was sealed and incubated for 6 hours at 37 °C. Following incubation, each well (both top and bottom halves) were transferred (20 µL) to the corresponding wells of a 96-shallow-well (V-bottom) plate. The daughter plates were then matrix-matched (DPBS side wells received equal volume of plasma, and plasma side wells received equal volume of DPBS), and extraction solution (120 µL; acetonitrile containing 50 nM carbamazepine as IS) was added to all wells of both daughter plates to precipitate protein and extract test article. The plates were then sealed and centrifuged (3500 rcf) for 10 minutes at ambient temperature. Supernatant (60 µL) from each well of the daughter plates was then transferred to the corresponding wells of new daughter plates (96-shallow-well, V bottom) containing water (Milli-Q, 60 µL/well), and the plates were sealed in preparation for LC-MS/MS analysis (see LC-MS/MS analysis method below).
The unbound fraction (f u) was calculated following the equation below, and mean values for each species were calculated from 3 replicates. […]
Fraction unbound for both plasma and brain samples was determined using Equation 4.
Equation 4 Determination of fraction unbound in plasma.

[3] = Plasma protein binding, dog; assay type: in vitro ADME; conditions: pH 7.4, read-out: fu,plasma dog
Description: (§2) Plasma protein binding and Brain homogenate binding: Determination of fraction unbound (f u) in plasma was conducted in vitro via equilibrium dialysis using HTDialysis (HTD) membrane plates. The top half of the plate was filled with 100 uL of Dubelco’s Phosphate Buffered Saline, pH 7.4 (DPBS). Compounds were diluted into plasma from each species (5 µM final concentration), which was aliquoted in triplicate to the ‘bottom half’ of the prepared HTD plate wells. The HTD plate was sealed and incubated for 6 hours at 37 °C. Following incubation, each well (both top and bottom halves) were transferred (20 µL) to the corresponding wells of a 96-shallow-well (V-bottom) plate. […]
(§3) The unbound fraction (f u) was calculated following the equation below, and mean values for each species were calculated from 3 replicates.
(§4) A similar approach was used to determine the degree of brain homogenate binding, which employed the same methodology and procedure with the following modifications: 1) a final compound concentration of 1 μM was used, 2) naïve rat brains were homogenized in DPBS (1:3 composition of brain: DPBS, w/w) using a Mini-Bead Beater™ machine in order to obtain brain homogenate, which was then treated in the same manner as the plasma samples in the previously described plasma protein binding assay. Fraction unbound for both plasma and brain samples was determined using Equation 4. […]

[4] = Plasma protein binding, cyno; assay type: in vitro ADME; conditions: cynomolgus monkey, pH 7.4, read-out: fu,plasma cyno
Description: as §2, §3, §4

[5] = Rat brain homogenate binding; assay type: in vitro ADME; conditions: brain homogenate (1:3 brain:DPBS, w/w), pH 7.4, read-out: fu,brain (r)
Description: as §1, with “Supernatant (60 µL) from each well of the daughter plates was then transferred to the corresponding wells of new daughter plates (96-shallow-well, V bottom) containing water (Milli-Q, 60 µL/well), and the plates were sealed in preparation for LC-MS/MS analysis (see LC-MS/MS analysis method below).” left out
as §3, §4
The diluted fraction unbound (fu2) in brain was calculated in the same manner by using brain homogenate rather than plasma. Undiluted fraction unbound for the brain was calculated using […]

[6] = target: T1, CYP1A2 (Homo sapiens, UniProt P05177); assay: CYP inhibition, 1A2; assay type: in vitro ADME
T1 sequence (P05177 1-516): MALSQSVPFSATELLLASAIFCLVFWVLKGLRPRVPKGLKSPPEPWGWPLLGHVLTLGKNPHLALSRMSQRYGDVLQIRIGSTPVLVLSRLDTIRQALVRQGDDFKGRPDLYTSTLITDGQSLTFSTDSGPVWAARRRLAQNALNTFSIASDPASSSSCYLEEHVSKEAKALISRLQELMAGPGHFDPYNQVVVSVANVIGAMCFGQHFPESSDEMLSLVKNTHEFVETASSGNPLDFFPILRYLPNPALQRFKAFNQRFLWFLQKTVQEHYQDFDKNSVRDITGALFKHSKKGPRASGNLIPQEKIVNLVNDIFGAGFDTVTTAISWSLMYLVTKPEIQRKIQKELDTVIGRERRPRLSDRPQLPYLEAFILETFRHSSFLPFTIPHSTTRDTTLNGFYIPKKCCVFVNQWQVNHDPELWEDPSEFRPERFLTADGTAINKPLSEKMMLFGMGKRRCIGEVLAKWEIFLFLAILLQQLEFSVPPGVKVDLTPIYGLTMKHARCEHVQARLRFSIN

[7] = target: CYP2C9 (Homo sapiens, UniProt P11712); assay: CYP inhibition, 2C9; assay type: in vitro ADME
[8] = target: CYP2D6 (Homo sapiens, UniProt P10635); assay: CYP inhibition, 2D6; assay type: in vitro ADME
[9] = target: CYP3A4 (Homo sapiens, UniProt P08684); assay: CYP inhibition, 3A4; assay type: in vitro ADME
[10] = test system: T2, P-gp; assay: MDCK-MDR1 P-gp efflux and permeability; assay type: in vitro ADME; parameters: efflux ratio at 2 h / Papp at 2 h: dose or concentration left out as unconfirmed; conditions: for P-gp ER / efflux ratio at 2 h: MDCK-MDR1 efflux ratio; for Papp at 2 h / efflux ratio at 2 h: dog; for Papp at 2 h: MDCK-MDR1; for efflux ratio at 2 h: read-out: P-gp ER
T2 construct: host or cells: MDR1-MDCK cell monolayers
Description: In-vitro determination of blood-brain barrier penetration potential
Blood-brain barrier penetration was determined using MDR1-MDCK cell monolayers by Absorption Systems, following their protocol. In short, compounds were incubated […] final […]
concentration on one side of the cell monolayer for 2 hours. Compounds concentration on either side of the monolayer was determined by LC-MS/MS and apparent permeability and efflux ratio

[11] = IV/PO pharmacokinetics, dog; assay type: in vivo, dog (beagle or mongrel); conditions: for clearance / Vd / half-life: plasma, 1 mg/kg; for clearance: read-out: CLp; for Vd: read-out: Vss; for half-life: read-out: elimination t1/2 (converted)
Text: We next conducted multispecies IV/PO PK in parallel as a potential discerning data set.

[12] = test system: Melatonin MT1; assay: Eurofins radioligand binding; parameters: species or system Human; conditions: specific binding

Sequence of CYP2C9 (P11712 whole entry): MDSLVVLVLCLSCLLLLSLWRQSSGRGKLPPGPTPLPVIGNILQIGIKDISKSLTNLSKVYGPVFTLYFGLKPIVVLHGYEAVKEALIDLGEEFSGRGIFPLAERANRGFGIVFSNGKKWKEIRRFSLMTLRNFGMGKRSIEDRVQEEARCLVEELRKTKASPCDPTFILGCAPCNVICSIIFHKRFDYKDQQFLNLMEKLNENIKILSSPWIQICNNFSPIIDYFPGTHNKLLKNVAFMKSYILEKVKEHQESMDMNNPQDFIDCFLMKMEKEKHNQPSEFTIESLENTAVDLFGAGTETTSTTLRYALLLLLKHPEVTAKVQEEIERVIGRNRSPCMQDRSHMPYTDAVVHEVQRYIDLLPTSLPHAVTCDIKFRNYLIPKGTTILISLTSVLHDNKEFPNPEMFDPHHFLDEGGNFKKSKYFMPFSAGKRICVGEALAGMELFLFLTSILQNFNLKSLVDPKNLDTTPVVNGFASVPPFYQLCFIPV
Sequence of CYP3A4 (P08684 whole entry): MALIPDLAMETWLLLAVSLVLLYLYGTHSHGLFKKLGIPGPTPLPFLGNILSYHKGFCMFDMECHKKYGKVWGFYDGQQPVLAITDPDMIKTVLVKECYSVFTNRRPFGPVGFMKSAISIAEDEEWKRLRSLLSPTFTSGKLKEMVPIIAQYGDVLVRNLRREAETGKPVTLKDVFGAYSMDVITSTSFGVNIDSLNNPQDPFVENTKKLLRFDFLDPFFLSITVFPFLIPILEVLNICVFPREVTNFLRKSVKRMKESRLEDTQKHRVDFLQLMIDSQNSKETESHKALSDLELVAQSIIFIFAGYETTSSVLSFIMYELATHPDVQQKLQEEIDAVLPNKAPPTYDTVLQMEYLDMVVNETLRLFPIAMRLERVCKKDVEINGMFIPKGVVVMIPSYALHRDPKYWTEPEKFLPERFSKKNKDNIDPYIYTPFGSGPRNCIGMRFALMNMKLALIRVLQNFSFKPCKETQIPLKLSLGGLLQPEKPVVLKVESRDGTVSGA
Sequence of CYP2D6 (P10635 whole entry): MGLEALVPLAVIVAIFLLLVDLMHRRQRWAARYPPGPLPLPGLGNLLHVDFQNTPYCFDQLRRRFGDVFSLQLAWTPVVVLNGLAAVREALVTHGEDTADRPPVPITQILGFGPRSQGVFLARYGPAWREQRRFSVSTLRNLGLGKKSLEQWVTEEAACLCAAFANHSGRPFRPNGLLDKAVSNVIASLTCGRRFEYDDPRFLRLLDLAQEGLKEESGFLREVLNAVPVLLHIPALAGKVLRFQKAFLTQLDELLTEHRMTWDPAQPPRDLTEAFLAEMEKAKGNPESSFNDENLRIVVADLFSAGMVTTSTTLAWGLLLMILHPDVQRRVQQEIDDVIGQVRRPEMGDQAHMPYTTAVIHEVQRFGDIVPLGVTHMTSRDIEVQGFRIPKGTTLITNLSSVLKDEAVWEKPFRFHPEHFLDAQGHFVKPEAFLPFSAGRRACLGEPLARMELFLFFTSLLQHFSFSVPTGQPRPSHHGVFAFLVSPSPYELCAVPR

Structure (SMILES) | EC50 [1] | fraction unbound at 6 h, 5 µM [2] | fraction unbound at 6 h, 5 µM [3] | fraction unbound at 6 h, 5 µM [4] | fraction unbound at 6 h, 1 µM [5] | IC50 [6] | IC50 [7] | IC50 [8] | IC50 [9] | P-gp ER [10] | Papp at 2 h [10] | efflux ratio at 2 h [10] | % Inhibition at 10 µM [12] | also measured
Cn1ccc(-c2ccc(Cc3cc(C(=O)NC4CCOCC4)nc4ccn(C)c34)cc2)n1 [compound 11] | > 30 µM | 0.04 | 0.06 | 0.026 | 0.038 | > 30 µM | 28.5 µM | > 30 µM | > 30 µM | 3.5 | 12.8 ×10⁻⁶ cm/s | 3.5 | 7% | F (%) po ([11]; dose iv/po 1/5 mg/kg): 35%; clearance ([11]; dose iv/po 1/5 mg/kg): 2.4 mL/min/kg; Vd ([11]; dose iv/po 1/5 mg/kg): 2.2 L/kg; half-life ([11]; dose iv/po 1/5 mg/kg): 768 min
Cn1ccc(-c2ccc(Cc3cc(C(=O)NC4CCOCC4)nc4ccsc34)cc2)n1 [compound 12] | > 30 µM | 0.015 | 0.018 | 0.009 | 0.011 | > 30 µM | 16.6 µM | > 30 µM | > 30 µM | 0.8 | 26.8 ×10⁻⁶ cm/s | 0.8 | 70% | F (%) po ([11]; dose iv/po 1/3 mg/kg): 9%; clearance ([11]; dose iv/po 1/3 mg/kg): 1.3 mL/min/kg; Vd ([11]; dose iv/po 1/3 mg/kg): 4 L/kg; half-life ([11]; dose iv/po 1/3 mg/kg): 2200 min
Cn1ccc2nc(C(=O)NC3CCOCC3)cc(Cc3ccc(-c4cc[nH]n4)cc3)c21 [compound 24] |  | 0.134 |  |  | 0.025 | > 30 µM | > 30 µM | > 30 µM | 5.7 µM |  | 2 ×10⁻⁶ cm/s | 31.9 |  | activity on rat M2–5 [1]: inactive
